Results: the NIST ThermoML archive (doi:10.1016/j.fluid.2016.02.005)
± gives the expanded uncertainty stated by the source.

Details: Liquid, Closed cell (Static) method

C=C(F)C(F)(F)F [2,3,3,3-tetrafluoro-1-propene]
Details | vapor or sublimation pressure [kPa]
254.1 K | 156.8 ± 1.2
273.43 K | 318.2 ± 1.6
293.24 K | 592.7 ± 2.5
303.17 K | 783.9 ± 3.4
318.08 K | 1153.4 ± 4.8
332.97 K | 1641.5 ± 6.8
348.4 K | 2288.8 ± 9.1
